Data from patent US11780834B2, “Solid forms of 3-((1R,3R)-1-(2,6-difluoro-4-((1-(3-fluoropropyl)azetidin-3-yl)amino)phenyl)-3-methyl-1,3,4,9-tetrahydro-2H-pyrido[3,4-b]indol-2-yl)-2,2-difluoropropan-1-ol and processes for preparing fused tricyclic compounds comprising a substituted phenyl or pyridinyl moiety, including methods …” (Hoffmann-La Roche Inc., priority 2018, dated 2023).
In brackets after ≈: the same amount, converted by molar mass.

Columns and labels:
[1] = Equilibrium solubility (24 hrs) of Form B and Form D in aw 0.2/0.4 EtOH:H2O systems; format: physicochemical; details: RT, concentration of freebase in filtrate; for solubility at 24 hrs: organic solvent or mixture, thermodynamic from solid
Procedure: Solubility Measurement of Form B and D. To further confirm the thermodynamic stability relationship between Form B and Form D under aw of 0.2 and 0.4 conditions at RT, equilibrium solubility under the conditions set forth in Table 35 was collected.
Solids of anhydrous Form B and hydrous Form D were suspended in 0.5 mL of target solvent system (aw=0.2/0.4), respectively, and magnetically stirred for 24 hrs (750 rpm). The suspension was filtered and the concentration of freebase in the filtrate was tested.

[2] = Water sorption analysis / DVS (hygroscopicity); format: physicochemical; details: for Hygroscopicity (in words): water sorption / DVS at 25° C.
Procedure: Water sorption analysis. About 5-6 mg of powder sample was placed in the sample pan of an automated water sorption analyzer (Q5000SA, TA instruments, New Castle, DE) at 25° C. and a nitrogen flow rate of 200 mL/min. […] This was followed by a progressive decrease in RH in decrements of 10% back to 0% RH, using the same protocol.

[3] = Solubility at 37° C. (summary of solid forms); format: physicochemical; details: medium not stated
[4] = Hydrate-anhydrate stability, slurry competition under various water activity at RT; format: physicochemical
Procedure: Critical Water Activity Determination between Form B and D. To determine critical water activity between anhydrous Form B and hydrous Form D, slurry competition was performed in various water activity conditions at RT as listed in Table 34. A mixture of Form B and D with equal mass ratio was suspended in saturated EtOH-water (with various aw) solutions of Form B and then magnetically stirred at RT. After slurry for about 7˜36 days, remaining solids were isolated for XRPD characterization.

[5] = Equilibrium solubility (17 hrs) of Form B and Form F in EtOH; format: physicochemical; details: concentration of freebase in filtrate
From the text: Phase transformation. Crystallization of Compound B from solvents such as ethyl acetate, ethanol, acetone or and aqueous mixture of these may result in the formation of one more of the following forms: anhydrous Form B, anhydrous Form F, monohydrate Form D, and acetone solvate Form A. The XRPD patterns of these four solid forms are shown in FIG. 21. It was therefore important to know the physical stability of these forms to determine the complete phase transformation landscape and control crystallization to obtain the desired Form B. Owing to the close proximity of melting points of Forms F and B (160-164° C. onset for Form F vs 166-175° C. for Form B), form conversion was slow in competitive slurry bridging experiments at RT and a mixture of both forms was obtained.
Equilibrium Solubility Measurement of Anhydrous Form B and F. To further determine the thermodynamic stability between Form B and F, equilibrium solubility measurement experiments were conducted in EtOH at 25° C., 35° C. and 50° C., respectively. Detailed procedures are summarized as follows: solids of Form B and F were suspended in 0.4 mL of EtOH at targeted temperatures and magnetically stirred for 17 hrs (750 rpm). After centrifugation, the concentration and HPLC purity of freebase in the filtrate was tested. The crystal form of remaining solids was checked by XRPD.

[6] = Stress stability of solid forms at elevated temperature and humidity (XRPD, impurities); format: physicochemical
Procedure: Preliminary stress stability analysis of Compound B Form B. The XRPD patterns of Compound A salts (fumarate and tartrate) exposed to 40° C./75% RH for one month under open conditions.
XRPD of one-month stability sample.

[7] = Compression analysis of Compound B Form B compacts; format: physicochemical; details: 250 mg compacts of neat compound
[8] = Approximate solubility of freebase Compound A in 16 solvents at RT; format: physicochemical
Procedure: Polymorph Screening. The solubility of freebase Compound A was estimated in 16 solvents at RT. (Table 8). Polymorph screening experiments were performed using different solution crystallization or solid phase transition methods.

[9] = tested on: xenograft models of ER-positive breast cancer; details: dosed according to a clinically relevant dosing scheme

For `C[C@@H]1Cc2c([nH]c3ccccc23)[C@@H](c2c(F)cc(NC3CN(CCCF)C3)cc2F)N1CC(F)(F)CO` [Compound B Form D], the “Solubility (equilibrium)” value ([1]; aw 0.2, EtOH:H2O (97:3, v/v)) was 21.7 mg/mL (≈ 41.5 mM), the “Solubility (equilibrium)” value ([1]; aw 0.4, EtOH:H2O (92.7:7.3, v/v)) was 18.6 mg/mL (≈ 35.6 mM) and the “Water uptake (DVS, desorption)” value ([2]; 20% RH, 25° C.) was 2.25%. For the same compound, the “Water uptake (DVS, desorption)” value ([2]; 80% RH, 25° C.) was 2.72%.
In the case of `C[C@@H]1Cc2c([nH]c3ccccc23)[C@@H](c2c(F)cc(NC3CN(CCCF)C3)cc2F)N1CC(F)(F)CO` [Compound C Form 1], the “Hygroscopicity at 95% RH” value ([2]; 95% RH) is reported as under 1.5%.
For `C[C@@H]1Cc2c([nH]c3ccccc23)[C@@H](c2c(F)cc(NC3CN(CCCF)C3)cc2F)N1CC(F)(F)CO` [Compound B Form B], the “Solubility at 37° C.” value [3] was “about 5.9 mg/mL”, the “Water activity (aw) at which the form remained stable against hydrate Form D” value [4] was under 0.2 and the “Water activity (aw) up to which the form was kinetically stable” value ([4]; slurry bridging experiments up to 36 days) was at most 0.4. The solubility at 17 hrs ([5]; 35 °C, organic solvent or mixture, thermodynamic from solid) was 0.3 mg/mL (≈ 0.574 mM), the solubility at 17 hrs ([5]; 50 °C, organic solvent or mixture, thermodynamic from solid) was 0.49 mg/mL (≈ 0.938 mM) and the solubility at 17 h ([5]; ethanol, 25 °C, organic solvent or mixture, thermodynamic from solid) was 0.23 mg/mL (≈ 0.44 mM). For the same compound, the “Solid form (XRPD) after accelerated stability” value ([6]; 30° C./65% RH and 40° C./75% RH, up to 6 months, open) was “remains unchanged”, the “Solid form (XRPD) after stress stability” value ([6]; 40° C./75% RH, one month, open) was “remains unchanged” and the solubility at 24 hrs ([1]; EtOH:H2O (92.7:7.3, v/v), aw 0.4, 25 °C, aw 0.4, EtOH:H2O (92.7:7.3, v/v)) was 27.5 mg/mL (≈ 52.6 mM). For the same compound, the solubility at 24 hrs ([1]; EtOH:H2O (97:3, v/v), aw 0.2, 25 °C, aw 0.2, EtOH:H2O (97:3, v/v)) was 24.4 mg/mL (≈ 46.7 mM), the “Hygroscopicity (in words)” value [2] was “slightly hygroscopic” and the “Solid form upon compression (SSNMR, XRPD)” value [7] was “remains unchanged”.
With `C[C@@H]1Cc2c([nH]c3ccccc23)[C@@H](c2c(F)cc(NC3CN(CCCF)C3)cc2F)N1CC(F)(F)CO` [Compound B Form F] the “Solubility (equilibrium)” value ([5]; 25° C.) was 0.26 mg/mL (≈ 0.498 mM), the “Solubility (equilibrium)” value ([5]; 35° C.) was 0.36 mg/mL (≈ 0.689 mM) and the “Solubility (equilibrium)” value ([5]; 50° C.) was 0.82 mg/mL (≈ 1.57 mM). For the same compound, the “Water uptake (DVS)” value ([2]; up to 80% RH, 25° C.) was about 1.9% and the “Hygroscopicity (in words)” value [2] was “slightly hygroscopic”.
For `C[C@@H]1Cc2c([nH]c3ccccc23)[C@@H](c2c(F)cc(NC3CN(CCCF)C3)cc2F)N1CC(F)(F)CO` [Compound A, 3-((1R,3R)-1-(2,6-difluoro-4-((1-(3-fluoropropyl)azetidin-3-yl)amino)phenyl)-3-methyl-1,3,4,9-tetrahydro-2H-pyrido[3,4-b]indol-2-yl)-2,2-difluoropropan-1-ol], the solubility [3] was about 6.6 mg/mL (≈ 12.6 mM), the solubility ([8]; ethanol, organic solvent or mixture, EtOH) was over 60 mg/mL and the solubility ([8]; organic solvent or mixture, 1,4-Dioxane) was over 60 mg/mL. It also gave a solubility ([8]; organic solvent or mixture, 2-propanol) of over 60 mg/mL, a solubility ([8]; organic solvent or mixture, ACN) of over 60 mg/mL and a solubility ([8]; organic solvent or mixture, Acetone) of over 60 mg/mL. For the same compound, the solubility ([8]; organic solvent or mixture, CPME) was over 44 mg/mL, the solubility ([8]; organic solvent or mixture, Cyclohexanes) was under 1.9 mg/mL and the solubility ([8]; organic solvent or mixture, EtOAc) was over 60 mg/mL. It also gave a solubility ([8]; organic solvent or mixture, IPAc) of over 60 mg/mL, a solubility ([8]; organic solvent or mixture, Iso-butanol) of over 40 mg/mL and a solubility ([8]; organic solvent or mixture, MIBK) of over 60 mg/mL. It also gave a solubility ([8]; organic solvent or mixture, MTBE) of over 60 mg/mL, a solubility ([8]; organic solvent or mixture, MeTHF) of over 60 mg/mL and a solubility ([8]; organic solvent or mixture, Toluene) of over 60 mg/mL. For the same compound, the solubility ([8]; organic solvent or mixture, n-Heptane) was under 2.1 mg/mL and the solubility ([8]; water, H2O) was under 1.9 mg/mL.
For `C[C@]12CC[C@@H]3c4ccc(O)cc4C[C@@H](CCCCCCCCC[S+]([O-])CCCC(F)(F)C(F)(F)F)[C@H]3[C@@H]1CC[C@@H]2O` (stereo partly drawn) [Fulvestrant, reference compound], the “Efficacy relative to Compound B” value [9] was “less efficacious than Compound B”.
With `C[C@@H]1Cc2c([nH]c3ccccc23)[C@@H](c2c(F)cc(NC3CN(CCCF)C3)cc2F)N1CC(F)(F)CO` [Compound C] the “Impurities after stress stability” value ([6]; 40° C./75% RH, one month) was 0.18% and the “Solid form (XRPD) after stress stability” value ([6]; 40° C./75% RH, one month, open) was “did not change”.
